From patent US10941157B2, “Pesticidal compositions and uses thereof” (Gilead Apollo, LLC, priority 2015, dated 2021)
In brackets after ≈: the same amount, converted by molar mass. Where two headings read alike, the source gives them in different places.

What was measured:
Type in all cases: cell-based
Rhizoctonia solani (Rs) = test: In vitro pathogen growth inhibition assay, Rs (mycelial plugs); settings: Rhizoctonia solani, 48 h, mycelial plugs
Description: (§1) A growth inhibition assay was conducted to determine the ability of compounds to control the growth of fungal pathogens, such as Botrtyis cinerea (Bc), Collectotrichum graminicola (Cg), Diplodia maydis (Dm), Fusarium moniliforme (Fm), Fusarium virguliforme (Fv), Phytophthora capsici (Pc), Rhizoctonia solani (Rs), and Septoria tritici (St). The compounds listed in Table 1 were each dissolved in DMSO at 2.5 mg/ml to produce compound stock solutions (“stocks”). […] Negative controls on each plate included 2% DMSO, water, and a blank (media+2% DMSO). Fungal spores were isolated from previously sub-cultured plates of Botrtyis cinerea (Bc), Collectotrichum graminicola (Cg), Diplodia maydis (Dm), Fusarium moniliforme (Fm), Fusarium virguliforme (Fv), Phytophthora capsici (Pc), and Septoria tritici (St). The isolated spores were diluted to individual concentrations with a 17% V8 liquid media. For Rhizoctonia solani (Rs), 1.5 mm mycelial plugs were used in place of spores and ¼ Potato Dextrose Broth (PDB) was used for dilution. The spore concentrations and plug sizes were based on growth curves generated at 48 hours for each pathogen. In a second 96-well plate, the spores or mycelial plugs, media, diluted compound solutions, and controls were combined. Once the compound was added, a true final concentration of compound in each well was measured by an OD600 reading, which adjusted for any compound precipitation that might have occurred in the well. Plate readings were repeated at both 24 and 48 hours. The blank negative control was used as a background subtraction. Additional visual ratings were performed at both 24 and 48 hours for checking on precipitation and confirming efficacy. […] Both tables list the concentration of each compound that was sufficient to ≥90% inhibition of growth for each of the fungal pathogens listed above. In addition, some of compounds were tested in a yeast growth inhibition assay for Saccharomyces cerevisiae (Sc). Table 2 lists the concentration of the tested compound that was sufficient to ≥75% inhibition of Saccharomyces cerevisiae (Sc).

[1] = system: Collectotrichum graminicola (Cg); test: In vitro pathogen growth inhibition assay, Cg; settings: 48 h
Description: as §1

[2] = system: Fusarium virguliforme (Fv); test: In vitro pathogen growth inhibition assay, Fv
Description: as §1

[3] = system: Fusarium moniliforme (Fm); test: In vitro pathogen growth inhibition assay, Fm; settings: Fusarium verticillioides
Description: as §1

Diplodia maydis (Dm) = test: In vitro pathogen growth inhibition assay, Dm; settings: Stenocarpella maydis, 48 h
Description: as §1

[4] = system: Phytophthora capsici (Pc); test: In vitro pathogen growth inhibition assay, Pc; settings: 48 h
Description: as §1

Botrtyis cinerea (Bc) = test: In vitro pathogen growth inhibition assay, Bc; settings: 48 h
Description: as §1

Septoria tritici (St) = test: In vitro pathogen growth inhibition assay, St; settings: Zymoseptoria tritici, 48 h
Description: as §1

[5] = ≥90% growth inhibition, 48 hours, vs 2% DMSO control, read-out: Compound Concentration (ppm) sufficient for ≥90% inhibition of Rs
[6] = ≥90% growth inhibition, 48 hours, vs 2% DMSO control, read-out: Compound Concentration (ppm) sufficient for ≥90% inhibition of Cg
[7] = ≥90% growth inhibition, 48 hours, vs 2% DMSO control, read-out: Compound Concentration (ppm) sufficient for ≥90% inhibition of Fv
[8] = ≥90% growth inhibition, 48 hours, vs 2% DMSO control, read-out: Compound Concentration (ppm) sufficient for ≥90% inhibition of Fm
[9] = ≥90% growth inhibition, 48 hours, vs 2% DMSO control, read-out: Compound Concentration (ppm) sufficient for ≥90% inhibition of Dm
[10] = ≥90% growth inhibition, 48 hours, vs 2% DMSO control, read-out: Compound Concentration (ppm) sufficient for ≥90% inhibition of Pc
[11] = ≥90% growth inhibition, 48 hours, vs 2% DMSO control, read-out: Compound Concentration (ppm) sufficient for ≥90% inhibition of Bc
[12] = ≥90% growth inhibition, 48 hours, vs 2% DMSO control, read-out: Compound Concentration (ppm) sufficient for ≥90% inhibition of St
[13] = ≥90% inhibition, 48 hours vs 2% DMSO control, read-out: Compound Concentration (ppm) sufficient for ≥90% inhibition of growth, Rs
[14] = ≥90% inhibition, 48 hours vs 2% DMSO control, read-out: Compound Concentration (ppm) sufficient for ≥90% inhibition of growth, Cg
[15] = ≥90% inhibition, 48 hours vs 2% DMSO control, read-out: Compound Concentration (ppm) sufficient for ≥90% inhibition of growth, Fv
[16] = ≥90% inhibition, 48 hours vs 2% DMSO control, read-out: Compound Concentration (ppm) sufficient for ≥90% inhibition of growth, Fm
[17] = ≥90% inhibition, 48 hours vs 2% DMSO control, read-out: Compound Concentration (ppm) sufficient for ≥90% inhibition of growth, Dm
[18] = ≥90% inhibition, 48 hours vs 2% DMSO control, read-out: Compound Concentration (ppm) sufficient for ≥90% inhibition of growth, Pc
[19] = ≥90% inhibition, 48 hours vs 2% DMSO control, read-out: Compound Concentration (ppm) sufficient for ≥90% inhibition of growth, Bc
[20] = ≥90% inhibition, 48 hours vs 2% DMSO control, read-out: Compound Concentration (ppm) sufficient for ≥90% inhibition of growth, St

Row | Structure (SMILES) | IC90 (Rhizoctonia solani (Rs); [5]) | IC90 [1, 6] | IC90 [2, 7] | IC90 [3, 8] | IC90 (Diplodia maydis (Dm); [9]) | IC90 [4, 10] | IC90 (Botrtyis cinerea (Bc); [11]) | IC90 (Septoria tritici (St); [12]) | IC90 (Rhizoctonia solani (Rs); [13]) | IC90 [1, 14] | IC90 [2, 15] | IC90 [3, 16] | IC90 (Diplodia maydis (Dm); [17]) | IC90 [4, 18] | IC90 (Botrtyis cinerea (Bc); [19]) | IC90 (Septoria tritici (St); [20])
1 | Cc1c(-n2nccn2)sc2c1c(=O)n(C(C)(C)C(=O)NC(C)C)c(=O)n2C[C@H](OCCC#N)c1cc(F)ccc1O [Compound I-282] | 0.4 µg/mL (≈ 0.685 µM) | 2 µg/mL (≈ 3.43 µM) | 2 µg/mL (≈ 3.43 µM) | 0.4 µg/mL (≈ 0.685 µM) | ≥ 10 µg/mL | 10 µg/mL (≈ 17.1 µM) | 2 µg/mL (≈ 3.43 µM) | > 50 µg/mL | – | – | – | – | – | – | – | –
2 | COc1ccc(F)cc1[C@H](Cn1c(=O)n([C@@H](C)C(=O)NC(C)C)c(=O)c2c(C)c(-n3nccn3)sc21)OCC(C)(C)C#N [Compound I-254] | > 50 µg/mL | > 50 µg/mL | > 50 µg/mL | 2 µg/mL (≈ 3.27 µM) | ≥ 10 µg/mL | > 50 µg/mL | 2 µg/mL (≈ 3.27 µM) | > 50 µg/mL | – | – | – | – | – | – | – | –
3 | COc1ccc(F)cc1[C@H](Cn1c(=O)n(C(C)(C)C(=O)NC(C)C)c(=O)c2c(C)c(-c3ncco3)sc21)OC(C)C [Compound I-018] | – | – | – | – | – | – | – | – | 0.08 µg/mL (≈ 0.136 µM) | 0.4 µg/mL (≈ 0.682 µM) | 0.4 µg/mL (≈ 0.682 µM) | 0.08 µg/mL (≈ 0.136 µM) | 0.4 µg/mL (≈ 0.682 µM) | > 50 µg/mL | 0.4 µg/mL (≈ 0.682 µM) | > 10 µg/mL
4 | COc1ccccc1[C@H](Cn1c(=O)n([C@H](C)C(=O)N(C)C(C)C)c(=O)c2c(C)c(-n3cccn3)sc21)OCCC#N [Compound I-242] | 2 µg/mL (≈ 3.46 µM) | 2 µg/mL (≈ 3.46 µM) | 2 µg/mL (≈ 3.46 µM) | 0.4 µg/mL (≈ 0.691 µM) | 2 µg/mL (≈ 3.46 µM) | > 50 µg/mL | 2 µg/mL (≈ 3.46 µM) | ≥ 50 µg/mL | – | – | – | – | – | – | – | –
5 | COc1ccc(F)cc1[C@H](Cn1c(=O)n(C(C)(C)C(=O)N2CCCC2)c(=O)c2c(C)c(-n3nccn3)sc21)OC[C@H](C)O [Compound I-133] | – | – | – | – | – | – | – | – | ≥ 2 µg/mL | 0.4 µg/mL (≈ 0.651 µM) | 0.4 µg/mL (≈ 0.651 µM) | 0.4 µg/mL (≈ 0.651 µM) | 2 µg/mL (≈ 3.25 µM) | 50 µg/mL (≈ 81.3 µM) | 2 µg/mL (≈ 3.25 µM) | ≥ 50 µg/mL
